Laboratory results: patent US12247018B2, “Aryl-n-aryl derivatives for treating a RNA virus infection” (ABIVAX, priority 2018, dated 2025)

What was measured:
[1] = system: CHIKV strain of La Réunion outbreak (LR2006-OPY1) with GFP modification in 5′; assay: microbe, parasite or virus in culture; type: cell-based, Chikungunya virus; details: infected HEK293T cells; for inhibition at 1 µM / IC50: Chikungunya virus, HEK-293T; for inhibition at 1 µM: compounds at 1 μM, MOI 0.1, 22 h, values above 100 lowered to 100, read-out: % CHIKV Inhibition Mean (n = 2); for IC50: second round of experiments
Description: The ability of the compounds to inhibit viral replication was assessed with an experiment in which infected cells were treated by compounds of formula (Ic) at 1 μM. As a positive control for inhibition of Chikungunya, Ribavirin was used. Toxicity of the compounds was assessed in parallel.
Human embryonic kidney cells 293T (HEK293T, CRL-11268) were maintained in Dulbecco's modified Eagle's Medium (DMEM, 31966-021, Thermo Fisher Scientific) supplemented with 10% of fetal bovine serum (FBS), penicillin and streptomycin. After removal of the medium, cells were washed with Ca^2+ and Mg^2+-free salt solution to remove all traces of serum. After aspiration of wash solution, cells were dissociated with 0.25% Trypsin-EDTA solution and incubated 30 s at least in 37° C. incubator. Concentration of cell suspension was determined by an automatic cell counter (EVE, NanoEntek) and, if needed, adjusted to 0.33×10^6 cells/mL with DMEM medium supplemented with 10% FBS.
100 μL of the cell suspension were dispatched in a ViewPlate-96 Black (6005182, PerkinElmer) and in a transparent 96-well cell culture plate (655180, Greiner bio-one). After an incubation for 24 h at 37° C. under 5% of CO2, compounds were added at the proper concentration.
An intermediate dilution was prepared with DMSO (D8418, Sigma) at 2 mM in a 96-well V-bottom microplate from the stock solution:
An intermediate dilution was prepared with DMSO (D8418, Sigma) at 25 mM in a 96-well V-bottom microplate from the stock solution:
Perform serial dilution in 2 μL of DMSO 13 times to reach 0.0015 mM. Proceed as follows in table III:
For both screen and determination of IC50, 1 μL of each solution was added in a 1 mL Masterblock 96 wells (Greiner bio-one, 780261) containing 1 mL of DMEM medium. As a positive control, 5 μL of a 80 mM Ribavirin solution (R9644, Sigma) is added to 1 mL of DMEM. On the other hand, DMSO is used as a negative control.
[…]. Vector Borne Zoonotic Dis. 2006; 6 (4)). This modified virus was used to infect cells at MOI 0.1. […].
Medium was removed after 22 h at 37° C. under 5% of CO2 and cells were washed as described above. 60 μL of RIPA buffer (50 mM Tris-HCl pH8, 100 mM NaCl, 1 mM MgCl2, 1% Triton X-100) was added to cells and incubated for at least 20 min before reading fluorescence signal. Pierce 660 nm Protein Assay Reagent (22660, Thermo scientific) was used to normalize fluorescence signal by protein quantity.
• A first round of experiments has been performed wherein the results are expressed as inhibition percentage, which is calculated as follows, through the following steps: • 1. Fluorescence intensity (FI)/Absorbance 660 nm (A660)=A • This ratio allows considering the infection (GFP virus) to the protein amount. • 2. A′=A−background noise of non-infected plate, • 3. B=Fluorescence intensity (FI)/Absorbance 660 nm (A660) of infected but non treated plates, • 4. C=A′/B, which is then converted as the percentage of infection after treatment, compared to non-treated sample, and subsequently as the infection percentage. For instance, a value of 100 in Table IV here below means that, after treatment, the signal attributed to GFP fluorescence is abolished, which is correlated to the absence of infection. • 5. C′=100-C
This value corresponds to the inhibition's percentage.
The following Table IV encompasses said C′ value for some compounds, as calculated above with a mean of 2 experiments, and corresponding standard deviation.
Some values were originally above 100. In these cases, the value has been lowered to 100. This means that some molecules also have an impact on the viability of the cells. In other words, the A value may be lower than the background noise.
Moreover, for each measure, the test was performed with Ribavirin as control. The value of the inhibition percentage was checked, giving 100%.

RSV A2 = assay: RSV inhibition (cytopathic effect) in HEp-2 cells using Viral ToxGlo assay; type: cell-based; details: human respiratory syncytial virus; RSV A2, HEp-2 cells, MOI 0.5, 72 h p.i.
Description: Protocol for Screening Antiviral Compounds for RSV Inhibition and Cytotoxicity Using Viral ToxGlo Assay
HEp-2 cells were maintained in Eagle's minimum essential medium (EMEM) with Earle's BSS adjusted to contain 2 mM L-glutamine, 10% fetal bovine serum, 100 U/ml penicillin and 100 μg/ml streptomycin. For the purposes of the screening assay they were grown to 90% confluency, trypsinized and recovered. The trypsin was neutralised with cell culture media and cells were centrifuged at 150×g for 5 minutes before discarding the supernatant and resuspending cell pellet in assay media (EMEM with Earle's BSS adjusted to contain 2 mM L-glutamine, 2% fetal bovine serum and 100 U/ml penicillin and 100 μg/ml streptomycin). The cells were seeded into white clear-bottomed cell culture plates at a density of 1.5×10^4 cells/well in 50 μl and 4×10^3 cells/well in 25 μl for 96 well plates and 384 well plates respectively. For the media/background control column assay media only was added. Cell plates were placed in a humid chamber and incubated overnight at 37° C./5% CO2. After overnight incubation cells were checked for confluency and healthy appearance.
Test articles were made up at 10× test concentration in a maximum DMSO concentration of 10% (final assay concentration maximal 1% DMSO) and added to the cell plates in volumes of 10 μl for 96 well plates and 5 μl for 384 well plates. For cell control and virus control wells the test article solvent only was added. Virus or assay media for cytotoxicity test wells and media/cell control wells was added immediately after test articles at an MOI of 0.5, 40 or 20 μl for 96 and 384 well plates respectively. Virus suspension was prepared by thawing RSV A2 frozen stocks and diluting to the required concentration of plaque forming units in assay media on ice.
Cell plates were further incubated inside a humid chamber for 72 h p.i at 37° C./5% CO2. After the incubation period cells were observed under the microscope to check for characteristic cytopathic effect in virus control wells and healthy cells in the cell control wells. After plates were adjusted to room temperature 20/40 μl Viral ToxGlo (Promega) was added to each well of the 384/96 well cell plates. Plates were incubated at room temperature, protected from light on a plate rocker for 20 minutes before measuring the luminescence on a spectrophotometer (Biotek Synergy HTX).

SMILES | inhibition at 1 µM [1] [%] | EC50 (RSV A2) [nM] | also measured
NC(=O)c1ncn([C@@H]2O[C@H](CO)[C@@H](O)[C@H]2O)n1 [Ribavirin, reference compound] |  |  | inhibition percentage (Ribavirin positive control) ([1]; Ribavirin as control in each measure): 100%
O=C(N=C1NCCCN1)c1ccc(Nc2cccc(C(=O)NCCC3CCCC3)c2)cc1 [compound 22, N-(2-cyclopentylethyl)-3-((4-((tetrahydropyrimidin-2(1H)-ylidene)carbamoyl)phenyl)amino)benzamide] | 94 |  | IC50 [1]: 100 to 400 nM
CC(C)CCNC(=O)c1cccc(Nc2ccc(C(=O)N=C3NCCCN3)cc2)c1 [compound 23, N-isopentyl-3-((4-((tetrahydropyrimidin-2(1H)-ylidene)carbamoyl)phenyl)amino)benzamide] | 98 |  | IC50 [1]: 100 to 400 nM
O=C(N=C1NCCCN1)c1ccc(Nc2cccc(C(=O)NCCC3CCCCC3)c2)cc1 [compound 24, N-(2-cyclohexylethyl)-3-((4-((tetrahydropyrimidin-2(1H)-ylidene)carbamoyl)phenyl)amino)benzamide] | 100 |  | IC50 [1]: 100 to 400 nM
O=C(N=C1NCCCN1)c1ccc(Nc2cccc(C(=O)NCCC3CCC3)c2)cc1 [compound 26, N-(2-cyclobutylethyl)-3-((4-((tetrahydropyrimidin-2(1H)-ylidene)carbamoyl)phenyl)amino)benzamide] | 97 |  | 
Cc1cc(C(=O)N=C2NCCCN2)ccc1Nc1cccc(C(=O)NCCC(C)C)c1 [compound 27, 4-((3-(isopentylcarbamoyl)phenyl)amino)-3-methyl-N-(tetrahydropyrimidin-2(1H)-ylidene)benzamide] | 96 | 365 | 
Cc1cc(C(=O)N=C2NCCCN2)ccc1Nc1cccc(C(=O)NCCC2CCCC2)c1 [compound 28, 4-((3-((2-cyclopentylethyl)carbamoyl)phenyl)amino)-3-methyl-N-(tetrahydropyrimidin-2(1H)-ylidene)benzamide] | 97 | 308 | 
Cc1cc(C(=O)N=C2NCCCN2)ccc1Nc1cccc(NC(=O)CCC2CCCCC2)c1 [compound 153, 4-{[3-(3-cyclohexylpropanamido)phenyl]amino}-N-(1,3-diazinan-2-ylidene)-3-methylbenzamide] |  | 704 | 
CC1(C)CN1C(=O)c1cccc(Nc2ccc(C(=O)N=C3NCCCN3)cc2C2CC2)c1 [compound 154, 3-cyclopropyl-N-(1,3-diazinan-2-ylidene)-4-{[3-(2,2-dimethylaziridine-1-carbonyl)phenyl]amino}benzamide] |  | 917 | 
O=C(N=C1NCCCN1)c1ccc(Nc2cccc(C(=O)NC3CCOC3)c2)c(C2CC2)c1 (stereo not shown) [compound 155, 3-cyclopropyl-N-(1,3-diazinan-2-ylidene)-4-({3-[(oxolan-3-yl)carbamoyl]phenyl}amino)benzamide] |  | 949 | 
Cc1cc(C(=O)N=C2NCCCN2)ccc1Nc1cccc(OCCCC2CCCCC2)c1 [compound 156, 4-{[3-(3-cyclohexylpropoxy)phenyl]amino}-N-(1,3-diazinan-2-ylidene)-3-methylbenzamide] |  | 966 | 
O=C(N=C1NCCCN1)c1ccc(Nc2cccc(C(=O)NC3CCOCC3)c2)c(C2CC2)c1 [compound 157, 3-cyclopropyl-N-(1,3-diazinan-2-ylidene)-4-({3-[(oxan-4-yl)carbamoyl]phenyl}amino)benzamide] |  | 1030 | 
O=C(N=C1NCCCN1)c1ccc(Nc2cccc(C(=O)N3CCOCC3)c2)c(C2CC2)c1 [compound 158, 3-cyclopropyl-N-(1,3-diazinan-2-ylidene)-4-{[3-(morpholine-4-carbonyl)phenyl]amino}benzamide] |  | 1030 | 
O=C(N=C1NCCCN1)c1ccc(Nc2ccccc2C(=O)NCCC(F)(F)F)c(C2CC2)c1 [compound 159, 3-cyclopropyl-N-(1,3-diazinan-2-ylidene)-4-({2-[(3,3,3-trifluoropropyl)carbamoyl]phenyl}amino)benzamide] |  | 1100 | 
O=C1CCN/C(=N\C(=O)c2ccc(Nc3cccc(OCC4COCCO4)c3)c(C3CC3)c2)N1 (stereo not shown) [compound 161, 3-cyclopropyl-4-({3-[(1,4-dioxan-2-yl)methoxy]phenyl}amino)-N-[(2E)-4-oxo-1,3-diazinan-2-ylidene]benzamide] |  | 1310 | 
CC1CN1C(=O)c1cccc(Nc2ccc(C(=O)N=C3NCCCN3)cc2C2CC2)c1 (stereo not shown) [compound 162, 3-cyclopropyl-N-(1,3-diazinan-2-ylidene)-4-{[3-(2-methylaziridine-1-carbonyl)phenyl]amino}benzamide] |  | 1370 | 
CN(C)C(=O)c1cccc(Nc2ccc(C(=O)N=C3NCCCN3)cc2C2CC2)c1 [compound 163, 3-cyclopropyl-N-(1,3-diazinan-2-ylidene)-4-{[3-(dimethylcarbamoyl)phenyl]amino}benzamide] |  | 1470 | 
O=C1CCN/C(=N\C(=O)c2ccc(Nc3cccc(C(=O)N4CCOCC4)c3)c(C3CC3)c2)N1 [compound 164, 3-cyclopropyl-4-{[3-(morpholine-4-carbonyl)phenyl]amino}-N-[(2E)-4-oxo-1,3-diazinan-2-ylidene]benzamide] |  | 1500 | 
Cc1c(Nc2ccc(C(=O)N=C3NCCCN3)cc2C2CC2)cccc1C(=O)NC1(C#N)CC1 [compound 165, 4-({3-[(1-cyanocyclopropyl)carbamoyl]-2-methylphenyl}amino)-3-cyclopropyl-N-(1,3-diazinan-2-ylidene)benzamide] |  | 1760 | 
O=C(N=C1NCCCN1)c1ccc(Nc2cccc(C(=O)NC3COC3)c2)c(C2CC2)c1 [compound 166, 3-cyclopropyl-N-(1,3-diazinan-2-ylidene)-4-({3-[(oxetan-3-yl)carbamoyl]phenyl}amino)benzamide] |  | 2740 | 
